Source: PMC3849035 (MedChemComm, 2011)

Tests used:
[1] = system: MDCK cells; conditions: microscopically visible alteration of cell morphology
[2] = system: HCMV and VZV; assay: organism not typed; format: cell-based; conditions: read-out: EC50's against HCMV and VZV
[3] = system: HEL, HeLa, Vero, MDCK; conditions: four different cell lines (HEL, HeLa, Vero, MDCK)
[4] = system: HEL cells; conditions: microscopically visible alteration of cell morphology
[5] = system: several tumor cell lines; assay: Cytotoxic activity against tumor cell lines; format: cell-based
[6] = system: HeLa cells; conditions: microscopically visible alteration of cell morphology
[7] = system: VZV (OKA & 07/1); assay: VZV plaque formation assay in HEL cells; format: cell-based, varicella-zoster virus; conditions: Human alphaherpesvirus 3, HEL, 120 h
[8] = system: Vero cells; conditions: microscopically visible alteration of cell morphology
[9] = system: Reovirus-1; assay: Inhibition of virus-induced cytopathicity, Reovirus-1 in Vero cells; format: cell-based
[10] = system: Parainfluenza-3 virus; assay: Inhibition of virus-induced cytopathicity, parainfluenza-3 virus in Vero cells; format: cell-based
[11] = system: RSV; assay: Inhibition of virus-induced cytopathicity, RSV in HeLa cells; format: cell-based; conditions: human respiratory syncytial virus
[12] = system: VSV; assay: microbe, parasite or virus in culture; format: cell-based; conditions: Vesicular stomatitis virus, HeLa

## O=c1[nH]c(=O)n(C2C=CC(O)C2)cc1-c1cccs1 (stereo not shown) [1a, 1-[4′-Hydroxy-2′-cyclopenten-1′-yl]-5-(thiophene-2-yl)-uracil]
[1]
  MCC (minimal cytotoxic concentration): 4 µM
[2]
  EC50: 1.6 to 2 µM
[3]
  global cytotoxicity: 4 to 20 µM
[4]
  MCC (minimal cytotoxic concentration): ≥4 µM
[5]
  cytotoxic activity against several tumor cell lines: significant cytotoxic activity
[6]
  MCC (minimal cytotoxic concentration): 20 µM
[7]
  EC50: 1.6 to 1.7 µM
[8]
  MCC (minimal cytotoxic concentration): 20 µM
[9]
  EC50: > 4 µM
[10]
  EC50: > 4 µM

## O=c1[nH]c(=O)n(C2C=CC(O)C2)cc1-c1ccco1 (stereo not shown) [1b, 1-[4′-Hydroxy-2′-cyclopenten-1′-yl]-5-(furan-2-yl)-uracil]
[4]
  MCC (minimal cytotoxic concentration): >100 µM
[6]
  MCC (minimal cytotoxic concentration): >100 µM
[8]
  MCC (minimal cytotoxic concentration): >100 µM
[10]
  EC50: > 100 µM

## O=c1[nH]c(=O)n(C2C=CC(O)C2)cc1-c1cncs1 (stereo not shown) [1c, 1-[4′-Hydroxy-2′-cyclopenten-1′-yl]-5-(thiazol-5-yl)-uracil]
[1]
  MCC (minimal cytotoxic concentration): 100 µM
[4]
  MCC (minimal cytotoxic concentration): ≥100 µM
[6]
  MCC (minimal cytotoxic concentration): >100 µM
[7]
  EC50: 47 to 56 µM
[8]
  MCC (minimal cytotoxic concentration): >100 µM
[9]
  EC50: > 100 µM
[10]
  EC50: > 100 µM

## NC(=O)c1ncn([C@@H]2O[C@H](CO)[C@@H](O)[C@H]2O)n1 [Ribavirin, reference compound]
[11]
  EC50: 10 µM
[12]
  EC50: 29 µM
[9]
  EC50: > 250 µM
[10]
  EC50: 85 µM
